Assay results from patent publication US11123353B2 (Zhejiang Chinese Medical University, priority 2019, dated 2021).
Values joined by “and” are separate entries in the source; they are usually repeats but may differ in a detail not shown here. Identical values can stand only once.

Columns and labels:
[1] = system: PC-9/GR tumor-bearing nude mouse model; assay: In vivo fluorescence imaging targeting test (DiR); design: species or system nude mice; conditions: DiR 7.5 μg·mL^−1, 0.2 mL tail vein, within 24 h
Procedure: The nude mice with a body mass of approximately 25 g in the established PC-9/GR tumor-bearing nude mouse model were taken, and respectively injected with 0.2 mL of a DiR raw medicine, and DiR-coated RGD/R8-ERG/GEF-LIP and RGD/R8-ERG/GEF-LIP freeze-dried powder (DiR concentration: 7.5 μg·mL^−1) by tail vein injection, the nude mice were anesthetized with isoflurane at different time points, and placed in an in vivo imager to observe the distribution of liposome in vivo (Ex=748 nm, Em=780 nm, and exposure time: 2 s). After 24 h, after the last in vivo imaging was finished, the nude mice were killed, and the heart, liver, spleen, lung, kidney and tumor were taken out and placed in the in vivo imager to observe the distribution of liposome in the in vitro tissues. […] It is speculated that the particle size of freeze-dried powder is smaller than that of RGD/R8-ERG/GEF-LIP, which increases the probability of entering the tumor cells to a certain extent and increases the tumor targeting effect in vivo.

A549 cells = assay: Cell cycle by PI flow cytometry, A549 cells; format: cell-based, human; conditions: A549, 48 h
Procedure: (§1) The number of cells in logarithmic growth phase was adjusted to 1.5×10^5·mL^−1, the cells were inoculated into a 6-well culture plate, and cultured in a 37° C. 5% CO2 incubator until 80% of the cells were fused and then a drug was added for treatment. […] After the drug acted for 48 h, a supernatant and cells were collected, centrifuged at 800 rpm·min^−1 for 10 min, washed once with PBS and fixed overnight with 75% ice ethanol, ethanol was discarded by centrifuging, and the cells were washed twice with PBS. The PBS was discarded, each sample was added with 0.5 ml of a PI staining solution to stain for 15 min at room temperature in the dark, and placed on a flow cytometer for measuring the proportion of cells in each cycle. The experiment was repeated 3 times.

PC-9 cells = assay: Cell cycle by PI flow cytometry, PC-9 cells; format: cell-based, human; conditions: PC-9, 48 h
Procedure: as §1
[…]. Other operations were the same as above.

[2] = In vitro release of GEF by dialysis in different pH release media; format: physicochemical; conditions: for cumulative release percentage of GEF: 37° C., listed as GEF raw medicine
Procedure: Due to its high lipid solubility, ERG could be dissolved in pure methanol or pure ethanol. However, the membranes of the liposomes directly ruptured in pure methanol or pure ethanol, and a release medium was difficult to meet the “sink” condition of ERG. Therefore, the in vitro release of ERG was not investigated in the experiment. […] Therefore, the in vitro release of GEF drug under different pH conditions was investigated in the experiment. […] Calculation was carried out according to the following formula: Cumulative release percentage Q (%)=(c1×V0+Σn=1^t-1Cv)/M0×100%
In the experiment, the in vitro release of GEF drug under different pH conditions was investigated. […] For specific operation, please refer to “5.7 Release Rate” in Part II in details.

[3] = system: PC-9/GR lung cancer xenografts; assay: Preliminary pharmacodynamic test in PC-9/GR tumor-bearing nude mice; format: in vivo, BABL/C nude mouse
Procedure: A PC-9/GR lung cancer cell line was digested from a culture flask, and then resuspended in 0.9% normal saline, and the cell concentration was adjusted to 2.5×10^7·mL^−1 and the cell was inoculated into the left axilla of BABL/C nude mouse. Each nude mouse was inoculated with 0.2 mL of a cell suspension.
The nude mice in each group were administered by tail vein injection.
After starting administration, the body mass of the nude mouse was regularly measured once, and the longest and shortest diameters of the tumor were measured with a vernier caliper to calculate the volume of the tumor. After consecutively administrating 7 times, the tumor volume of each group was measured and the tumor inhibitory rate of each administration group was calculated. Tumor volume (mm^3)=½×Long diameter (mm)×Short diameter (mm)^2
Tumor inhibitory rate (%)=(Average tumor weight of model control group (mg)—Average tumor weight of administration group (mg))/Average tumor weight of model control group (mg)×100%

For CCCCCCCCCCCCCCCCCCN1/C(=C/C=C/C=C/C=C/C2=[N+](CCCCCCCCCCCCCCCCCC)c3ccccc3C2(C)C)C(C)(C)c2ccccc21.[I-] [DiR raw medicine], the “fluorescence accumulation in the tumor site” value [1] was “not accumulated in the tumor site”.

In the case of COc1cc2ncnc(Nc3ccc(F)c(Cl)c3)c2cc1OCCCN1CCOCC1 [GEF, gefitinib], the G0/G1 phase fraction (A549 cells; GEF 20 μM, combination of two drugs) is reported as 72.60±0.81%, the G0/G1 phase fraction (PC-9 cells; GEF 5 μM, ERG+GEF 40+5 μM) is reported as 78.35±1.58% and the “cumulative release percentage of GEF” value ([2]; pH 6.4 40% methanol-containing phosphate buffer, 24 h) is reported as 98.91% and 99.12%. For the same molecule, the release model fitting ([2]; pH 6.4 release medium (FIG. 12)) was “conforms to the first-order kinetic equation”, the release model fitting ([2]; pH 6.4 release medium (FIG. 25; freeze-dried powder first 4 h)) was “more in line with the first-order model” and the “cumulative release percentage of GEF” value ([2]; pH 7.4 40% methanol-containing phosphate buffer, within 24 h) was 76.91% and 81.10%. The “fitting correlation coefficient of the first-order kinetic equation” value ([2]; pH 7.4 release medium) was 0.9952, the release model fitting ([2]; pH 7.4 release medium (FIG. 12)) was “closer to the Higuchi equation” and the release model fitting ([2]; pH 7.4 release medium (FIG. 25; freeze-dried powder first 4 h)) was “more in line with the Higuchi model”. The average tumor weight ([3]; compared with the model control group) was “highly significant difference” and the tumor volume change ([3]; course over 15 days of administration) was “rapid growth trend after the 9th day of administration”.

CC(C)[C@@H](C)/C=C/[C@@H](C)[C@H]1CC[C@H]2C3=CC=C4C[C@@H](O)CC[C@]4(C)[C@H]3CC[C@]12C [ERG, ergosterol] gave a S phase fraction (A549 cells; ERG 20 μM) of 32.05±2.27%, a G2/M phase fraction (PC-9 cells; ERG 40 μM) of 13.58±1.80% and a S phase fraction (PC-9 cells; ERG 40 μM, ERG+GEF 40+5 μM) of 26.93±2.02%.
